Results on 14 compounds are retold here after PMC12412055, “Parallel synthesis of 5′-amino-5′-deoxy-adenosine derivatives for focused chemical space exploration and their application as methyltransferase inhibitors” (RSC Medicinal Chemistry, 2025).

One assay has as its target SARS-CoV-2 nsp14/10 (Severe acute respiratory syndrome coronavirus 2, UniProt P0DTD1). Nature of the assay: Fluorescence polarization (FP) FTAD displacement assay, nsp14/10. In kind it is binding. The note with it: for displacement of FTAD: 1 μM compound; for Kd: 50 nM FTAD.
The target in assay [1] is T1, METTL3/14 (Homo sapiens, UniProt Q86U44).
T1 construct: human METTL3 (UniProt: Q86U44 aa 252–580); Strep tag-II (C); made in house; host or cells: E. coli BL21(DE3), pETduet-1
T1 sequence (Q86U44 252-580): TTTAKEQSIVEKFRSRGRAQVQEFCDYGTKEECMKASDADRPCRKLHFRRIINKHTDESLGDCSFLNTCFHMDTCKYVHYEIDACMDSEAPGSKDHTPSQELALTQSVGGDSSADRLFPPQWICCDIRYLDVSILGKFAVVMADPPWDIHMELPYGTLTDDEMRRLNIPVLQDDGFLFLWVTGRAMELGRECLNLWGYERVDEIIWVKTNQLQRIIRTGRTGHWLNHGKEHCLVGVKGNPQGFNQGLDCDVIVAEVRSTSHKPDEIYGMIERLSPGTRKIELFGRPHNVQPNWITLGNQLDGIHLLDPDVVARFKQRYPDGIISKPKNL
T1 sequence (Q9HCE5 108-444 partner limits assumed): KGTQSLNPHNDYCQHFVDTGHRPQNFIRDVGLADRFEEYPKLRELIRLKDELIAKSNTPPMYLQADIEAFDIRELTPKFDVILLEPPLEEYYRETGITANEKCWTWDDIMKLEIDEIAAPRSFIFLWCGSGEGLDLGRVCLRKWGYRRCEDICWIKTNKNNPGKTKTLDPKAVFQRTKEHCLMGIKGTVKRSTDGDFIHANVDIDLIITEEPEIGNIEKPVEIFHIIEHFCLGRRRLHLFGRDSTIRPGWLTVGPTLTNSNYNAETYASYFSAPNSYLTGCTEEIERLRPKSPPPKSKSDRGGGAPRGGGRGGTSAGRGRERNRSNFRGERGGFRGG
Nature of the assay: Fluorescence polarization (FP) FTAD displacement assay, METTL3/14. The note with it: for KD (METTL3/14, FP-assay) / Kd / displacement of FTAD: 50 nM FTAD, 1 μM enzyme; for KD (METTL3/14, FP-assay) / Kd: compound dilution series; for displacement of FTAD: 100 μM compound. In kind it is binding.

Assay [2] addresses T2, nsp14/10 (Severe acute respiratory syndrome coronavirus 2, UniProt P0DTD1). Nature of the assay: biochemical. The class given is binding. Particulars: for Kd: read-out: KD (ITC).
In assay [3] the target is T2, nsp14/10. The note with it: cited from earlier work.
The target in assay [4] is T2, nsp14/10. The assay is described as follows: Microscale thermophoresis (MST) FTAD displacement assay. The class given is binding. The note with it: 50 nM FTAD, 3-fold dilution series of nsp14/10.
Assay [5] has as its target T1, METTL3/14. On the set-up: method as in PMID 39145518. Particulars: probe affinity; read-out: KD of FTAD for METTL3/14; cited from earlier work.
The target in another assay is human DNMT2. On the set-up: method as in PMID 39145518. Particulars: probe affinity; read-out: KD of FTAD for DNMT2; cited from earlier work.
[6] abbreviates: mean ± standard deviation from duplicate measurements, 25 °C.
Setting [7] is: single measurement (one of duplicates).
[8] abbreviates: ligand 0.305 µM, dilution series.
Where [9] appears, read: ligand 0.914 µM, dilution series.
[10] abbreviates: ligand 2.74 µM, dilution series.
[11] abbreviates: ligand 8.22 µM, dilution series.
[12] abbreviates: ligand 24.7 µM, dilution series.
Where [13] appears, read: ligand 74.0 µM, dilution series.
[14] abbreviates: ligand 100 µM, triplicate wells.
[15] abbreviates: ligand 100 µM, triplicate wells, enzyme not printed in Table S4.
Setting [16] is: 1 μM enzyme, compound dilution series, read-out: KD (nsp14/10, determined by FP-assay).

Molecules are shown by their SMILES. “And” between values parts separate entries of the source, which are not always exact repeats. Equal values may be shown once. Read-outs that look alike come from different tables or passages of the source.

As to `Nc1ncnc2c1ncn2[C@@H]1O[C@H](CNS(=O)(=O)c2ccc3ccccc3c2)[C@@H](O)[C@H]1O` [Compound 34, N-(((2R,3S,4R,5R)-5-(6-Amino-9H-purin-9-yl)-3,4-dihydroxy-tetrahydrofuran-2-yl)methyl)naphthalene-2-sulfonamide], the “displacement of FTAD” value on SARS-CoV-2 nsp14/10 is on record as 100%. Besides, at METTL3/14 [1], the “KD (METTL3/14, FP-assay)” value is on record as “low micromolar affinity”; the Kd stood at 12900 ± 2000 nM; the “displacement of FTAD” value is recorded as roughly 92%. Moreover, the “KD (ITC)” value at nsp14/10 [2] (setting [6]) is “nanomolar range”. For the same compound, at nsp14/10 [2] (setting [7]), the “-T∆S (ITC)” value was 12 kcal/mol and 14.9 kcal/mol; the “stoichiometry n (ITC)” value is 0.66 and 0.67; the Kd is 165 nM and 214 nM. For the same compound, the “binding and inhibition of nsp14/10” value on nsp14/10 [3] is “nanomolar range”.

With `Nc1ncnc2c1ncn2[C@@H]1O[C@H](CNS(=O)(=O)/C=C/c2ccccc2)[C@@H](O)[C@H]1O` [Compound 35, (E)-N-(((2R,3S,4R,5R)-5-(6-Amino-9H-purin-9-yl)-3,4-di-hydroxytetrahydrofuran-2-yl)methyl)-2-phenylethene-1-sulfonamide], at SARS-CoV-2 nsp14/10, the “displacement of FTAD” value came out at 100%. Besides, the “ΔH (ITC)” value on nsp14/10 [2] (mean ± standard deviation from duplicate measurements) was -32.86 kcal/mol. Moreover, on nsp14/10 [2] (setting [6]), the “KD (ITC)” value is reported as “nanomolar range”. At nsp14/10 [2] (setting [7]), the “-T∆S (ITC)” value is 24.6 kcal/mol and 22.5 kcal/mol; the “stoichiometry n (ITC)” value is 0.42 and 0.45; the Kd is 151 nM and 169 nM.

As to `Nc1ncnc2c1ncn2[C@@H]1O[C@H](CNS(=O)(=O)c2ccc(-c3ccccc3)cc2)[C@@H](O)[C@H]1O` [Compound 40, N-(((2R,3S,4R,5R)-5-(6-Amino-9H-purin-9-yl)-3,4-dihydroxy-tetrahydrofuran-2-yl)methyl)-[1,1′-biphenyl]-4-sulfonamide], at METTL3/14 [1], the “KD (METTL3/14, FP-assay)” value was “low micromolar affinity”; the Kd stood at 16100 ± 4600 nM; the “displacement of FTAD” value was roughly 92%.

For the compound `CN(C)c1cccc2c(S(=O)(=O)NC[C@H]3O[C@@H](n4cnc5c(N)ncnc54)[C@H](O)[C@@H]3O)cccc12` [Compound 42, N-(((2R,3S,4R,5R)-5-(6-Amino-9H-purin-9-yl)-3,4-dihydroxy-tetrahydrofuran-2-yl)methyl)-5-(dimethylamino)naphthalen-1-sulfonamide], the “KD (METTL3/14, FP-assay)” value at METTL3/14 [1] is “low micromolar affinity”. The Kd on METTL3/14 [1] is 22500 ± 1400 nM. In addition, the “displacement of FTAD” value at METTL3/14 [1] is given as roughly 92%. For the same compound, the “fluorescence polarization, raw data” value was 144 mP and 142 mP and 140 mP at METTL3/14 [1] (setting [8]); 131 mP and 134 mP and 139 mP on METTL3/14 [1] (setting [9]); 128 mP and 126 mP at METTL3/14 [1] (setting [10]); 116 mP and 113 mP and 115 mP at METTL3/14 [1] (setting [11]); 90 mP and 84 mP and 93 mP on METTL3/14 [1] (setting [12]); 40 mP and 43 mP and 54 mP on METTL3/14 [1] (setting [13]). Besides, the “fluorescence polarization, raw data” value on METTL3/14 [1] (setting [15]) is 44 mP and 42 mP and 39 mP; on METTL3/14 [1] (ligand 222 µM, dilution series), 23 mP and 28 mP and 40 mP; at METTL3/14 [1] (ligand 666 µM, dilution series), 30 mP and 36 mP and 33 mP. For the same compound, the “total intensity, raw data” value was 16997 and 14743 and 15446 at METTL3/14 [1] (setting [8]); 16613 and 15443 and 18075 at METTL3/14 [1] (setting [9]); 15091 and 15438 and 15739 on METTL3/14 [1] (setting [10]); 16190 and 14718 and 16069 on METTL3/14 [1] (setting [11]); 17750 and 16617 and 17703 at METTL3/14 [1] (setting [12]); 17281 and 16313 and 18091 on METTL3/14 [1] (setting [13]). Also, the “total intensity, raw data” value at METTL3/14 [1] (setting [14]) was 18205 and 16177 and 16524; on METTL3/14 [1] (ligand 222 µM, dilution series) it was 22984 and 20625 and 20534; at METTL3/14 [1] (ligand 666 µM, dilution series), 25251 and 24796 and 26626.

Regarding `Nc1ncnc2c1ncn2[C@@H]1O[C@H](CNS(=O)(=O)c2ccc(Br)c([N+](=O)[O-])c2)[C@@H](O)[C@H]1O` [Compound 44, N-(((2R,3S,4R,5R)-5-(6-Amino-9H-purin-9-yl)-3,4-dihydroxytetrahydrofuran-2-yl)methyl)-4-bromo-3-nitrobenzenesulfon amide], the “inhibition of nsp14/10” value on nsp14/10 [3] is “low micromolar range”.

For the compound `Nc1ncnc2c1ncn2[C@@H]1O[C@H](CNS(=O)(=O)c2ccc(Cl)c(C(F)(F)F)c2)[C@@H](O)[C@H]1O` [Compound 46, N-(((2R,3S,4R,5R)-5-(6-Amino-9H-purin-9-yl)-3,4-dihydroxy-tetrahydrofuran-2-yl)methyl)-4-chloro-3-(trifluoromethyl) benzenesulfonamide], at SARS-CoV-2 nsp14/10, the “displacement of FTAD” value came to 100%. For the same compound, at nsp14/10 [2] (setting [6]), the “KD (ITC)” value is reported as “nanomolar range” and the Kd stood at 106 ± 6 nM. In addition, on nsp14/10 [2] (setting [7]), the “-T∆S (ITC)” value was 15.8 kcal/mol and 13.8 kcal/mol; the “stoichiometry n (ITC)” value was 0.43 and 0.44; the Kd is 111 nM and 100 nM.

For `Cc1ccc(S(=O)(=O)NC[C@H]2O[C@@H](n3cnc4c(N)ncnc43)[C@H](O)[C@@H]2O)cc1[N+](=O)[O-]` [Compound 47, N-(((2R,3S,4R,5R)-5-(6-Amino-9H-purin-9-yl)-3,4-dihydroxy-tetrahydrofuran-2-yl)methyl)-4-methyl-3-nitrobenzenesulfon amide], the “inhibition of nsp14/10” value at nsp14/10 [3] was “low micromolar range”.

In the case of `Nc1ncnc2c1ncn2[C@@H]1O[C@H](CNC(=O)Cc2cccc(F)c2Br)[C@@H](O)[C@H]1O` [Compound 63, N-(((2R,3S,4R,5R)-5-(6-Amino-9H-purin-9-yl)-3,4-dihydroxytetra hydrofuran-2-yl)methyl)-2-(2-bromo-3-fluorophenyl)acetamide], the Kd at SARS-CoV-2 nsp14/10 (setting [16]) was 17200 ± 5500 nM.

`Cc1cccc(-c2cncc(C(=O)NC[C@H]3O[C@@H](n4cnc5c(N)ncnc54)[C@H](O)[C@@H]3O)c2)c1` [Compound 64, N-(((2R,3S,4R,5R)-5-(6-Amino-9H-purin-9-yl)-3,4-dihydroxytetra hydrofuran-2-yl)methyl)-5-(m-tolyl)nicotinamide]: on SARS-CoV-2 nsp14/10 (setting [16]), the Kd was found to be 2900 ± 380 nM.

For the compound `Nc1ncnc2c1ncn2[C@@H]1O[C@H](CNS(=O)(=O)Cc2ccc3ccccc3c2)[C@@H](O)[C@H]1O` [Compound 65, N-(((2R,3S,4R,5R)-5-(6-Amino-9H-purin-9-yl)-3,4-dihydroxytetra hydrofuran-2-yl)methyl)-1-(naphthalen-2-yl)methanesulfon amide], the Kd at SARS-CoV-2 nsp14/10 (setting [16]) was 3800 ± 780 nM.

Turning to `Nc1ncnc2c1ncn2[C@@H]1O[C@H](CNS(=O)(=O)Cc2ccccc2)[C@@H](O)[C@H]1O` [Compound 66, N-(((2R,3S,4R,5R)-5-(6-Amino-9H-purin-9-yl)-3,4-dihydroxytetra hydrofuran-2-yl)methyl)-1-phenylmethanesulfonamide], the Kd at SARS-CoV-2 nsp14/10 (setting [16]) was 42300 ± 11100 nM.

With `Nc1ncnc2c1ncn2[C@@H]1O[C@H](CN(CC[C@H](N)C(=O)O)Cc2cn(CCNC(=O)c3ccc4c(c3)C(=O)OC43c4ccc(O)cc4Oc4cc(O)ccc43)nn2)[C@@H](O)[C@H]1O` [FTAD, 5-FAM-triazolyl-adenosyl-diaminobutyric acid], the Kd is 1200 ± 100 nM at nsp14/10 [4]; 1300 ± 300 nM on SARS-CoV-2 nsp14/10 (2-fold dilution series of nsp14/10 from 3.00 μM to 46.9 nM, read-out: KD(FTAD, nsp14/10), FP-assay); 1100 ± 100 nM on METTL3/14 [5]; 6400 ± 700 nM at human DNMT2.

For the compound `Nc1ncnc2c1ncn2[C@@H]1O[C@H](CSCC[C@H](N)C(=O)O)[C@@H](O)[C@H]1O` [SAH, S-adenosyl-L-homocysteine, reference compound], the “total intensity, raw data” value on METTL3/14 [1] (setting [14]) is 15527 and 14218 and 14357. In addition, the “fluorescence polarization, raw data” value on METTL3/14 [1] (setting [15]) was 13 mP and 7 mP and 8 mP.

Take `Nc1ncnc2c1ncn2[C@@H]1O[C@H](C[C@@H](N)CC[C@H](N)C(=O)O)[C@@H](O)[C@H]1O` [SFG, sinefungin, reference compound]: at METTL3/14 [1], the “displacement of FTAD” value stood at 92%.
